A value given as a limit tells only on which side of the number the result lay.

What all share (format): biochemical
One test has as its target T1, Rsk1(h) (Homo sapiens, UniProt Q15418).
T1 construct: purchased Eurofins (Eurofins Cerep) KinaseProfiler
Description: Eurofins KinaseProfiler radiometric kinase assay. Particulars: for remaining activity at 10 µM: read-out: Rsk1(h) % Residual activity.

The next test deals with T2, PKA(h) (Homo sapiens, UniProt P17612).
T2 construct: purchased Eurofins KinaseProfiler (Eurofins Cerep)
Put plainly: Eurofins KinaseProfiler radiometric kinase assay. Particulars: for remaining activity at 10 µM: read-out: PKA(h) % Residual activity.

In a further test the target is T3, EphB4(h) (Homo sapiens, UniProt P54760).
T3 construct: purchased Eurofins KinaseProfiler (Eurofins Cerep)
T3 sequence (P54760 16-987): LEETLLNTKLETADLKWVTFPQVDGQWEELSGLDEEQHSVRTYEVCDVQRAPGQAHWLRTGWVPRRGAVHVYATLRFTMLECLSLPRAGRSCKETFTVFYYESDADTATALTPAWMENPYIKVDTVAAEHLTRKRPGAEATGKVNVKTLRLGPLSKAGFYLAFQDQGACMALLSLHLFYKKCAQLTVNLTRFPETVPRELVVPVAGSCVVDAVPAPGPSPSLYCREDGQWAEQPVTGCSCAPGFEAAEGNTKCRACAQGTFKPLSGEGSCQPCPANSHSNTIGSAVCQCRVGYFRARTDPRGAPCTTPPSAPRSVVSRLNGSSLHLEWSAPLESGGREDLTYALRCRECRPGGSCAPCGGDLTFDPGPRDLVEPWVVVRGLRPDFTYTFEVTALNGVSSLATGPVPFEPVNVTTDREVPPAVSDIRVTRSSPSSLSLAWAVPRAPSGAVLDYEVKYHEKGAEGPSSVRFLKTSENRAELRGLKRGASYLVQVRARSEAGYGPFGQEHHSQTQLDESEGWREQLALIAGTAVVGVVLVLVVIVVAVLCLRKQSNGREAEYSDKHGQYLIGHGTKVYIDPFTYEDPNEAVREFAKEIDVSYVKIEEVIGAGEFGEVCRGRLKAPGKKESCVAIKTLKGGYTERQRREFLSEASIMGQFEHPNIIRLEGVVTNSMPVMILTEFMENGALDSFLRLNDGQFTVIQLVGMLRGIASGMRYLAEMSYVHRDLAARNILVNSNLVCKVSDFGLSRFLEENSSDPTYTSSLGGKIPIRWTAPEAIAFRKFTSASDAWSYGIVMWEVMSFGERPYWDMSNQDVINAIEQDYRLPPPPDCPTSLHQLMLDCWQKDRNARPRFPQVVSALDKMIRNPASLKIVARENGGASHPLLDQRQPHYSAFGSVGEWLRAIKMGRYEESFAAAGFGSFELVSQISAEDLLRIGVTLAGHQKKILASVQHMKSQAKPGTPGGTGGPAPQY
Description: Eurofins KinaseProfiler radiometric kinase assay. To be noted: read-out: EphB4(h) % Residual activity.

A further test has as its target T4, EphA5(h) (Homo sapiens, UniProt P54756).
T4 construct: purchased Eurofins KinaseProfiler (Eurofins Cerep)
Description: Eurofins KinaseProfiler radiometric kinase assay. To be noted: read-out: EphA5(h) % Residual activity.

A further test concerns the target T5, CDK7/cyclinH/MAT1(h) (Homo sapiens, UniProt P50613).
T5 construct: purchased Eurofins KinaseProfiler (Eurofins Cerep)
Put plainly: Eurofins KinaseProfiler radiometric kinase assay. Particulars: read-out: CDK7/cyclinH/MAT1(h) % Residual activity.

The target of a further test is T6, SAPK2a(h) (Homo sapiens, UniProt Q16539).
T6 construct: purchased Eurofins (Eurofins Cerep) KinaseProfiler
Description: Eurofins KinaseProfiler radiometric kinase assay. To be noted: read-out: SAPK2a(h) % Residual activity.

The next test deals with T7, AMPKα1(h) (Homo sapiens, UniProt Q13131).
T7 construct: purchased Eurofins KinaseProfiler (Eurofins Cerep)
Description: Eurofins KinaseProfiler radiometric kinase assay. Particulars: read-out: AMPKα1(h) % Residual activity.

The target in the next test is T8, IRAK4(h) (Homo sapiens, UniProt Q9NWZ3).
T8 construct: purchased Eurofins KinaseProfiler (Eurofins Cerep)
T8 sequence (Q9NWZ3 whole entry): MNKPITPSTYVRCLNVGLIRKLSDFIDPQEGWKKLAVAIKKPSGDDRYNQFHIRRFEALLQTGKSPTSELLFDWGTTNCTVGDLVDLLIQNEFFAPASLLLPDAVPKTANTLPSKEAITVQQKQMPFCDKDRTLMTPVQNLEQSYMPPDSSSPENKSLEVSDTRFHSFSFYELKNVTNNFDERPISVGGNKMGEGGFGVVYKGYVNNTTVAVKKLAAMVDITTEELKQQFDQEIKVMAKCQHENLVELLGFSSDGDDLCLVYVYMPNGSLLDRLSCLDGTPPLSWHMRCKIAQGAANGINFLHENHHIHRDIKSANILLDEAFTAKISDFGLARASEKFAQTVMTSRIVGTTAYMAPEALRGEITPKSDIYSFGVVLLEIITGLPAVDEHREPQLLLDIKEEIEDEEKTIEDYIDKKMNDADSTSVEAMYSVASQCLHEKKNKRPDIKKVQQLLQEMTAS
Description: Eurofins KinaseProfiler radiometric kinase assay. To be noted: read-out: IRAK4(h) % Residual activity.

For test [1], the target named is T9, PI3 Kinase (p110α/p85α)(h) (Homo sapiens, UniProt P42336).
T9 construct: purchased Eurofins (Eurofins Cerep) KinaseProfiler
Put plainly: Eurofins KinaseProfiler radiometric kinase assay. To be noted: read-out: PI3 Kinase (p110α/p85α)(h) % Residual activity.

For a further test, the target named is T10, p70S6K(h) (Homo sapiens, UniProt P23443).
T10 construct: purchased Eurofins KinaseProfiler (Eurofins Cerep)
Description: Eurofins KinaseProfiler radiometric kinase assay. To be noted: read-out: p70S6K(h) % Residual activity.

Another test has as its target T11, DRAK1(h) (Homo sapiens, UniProt Q9UEE5).
T11 construct: purchased Eurofins KinaseProfiler (Eurofins Cerep)
T11 sequence (Q9UEE5 1-414): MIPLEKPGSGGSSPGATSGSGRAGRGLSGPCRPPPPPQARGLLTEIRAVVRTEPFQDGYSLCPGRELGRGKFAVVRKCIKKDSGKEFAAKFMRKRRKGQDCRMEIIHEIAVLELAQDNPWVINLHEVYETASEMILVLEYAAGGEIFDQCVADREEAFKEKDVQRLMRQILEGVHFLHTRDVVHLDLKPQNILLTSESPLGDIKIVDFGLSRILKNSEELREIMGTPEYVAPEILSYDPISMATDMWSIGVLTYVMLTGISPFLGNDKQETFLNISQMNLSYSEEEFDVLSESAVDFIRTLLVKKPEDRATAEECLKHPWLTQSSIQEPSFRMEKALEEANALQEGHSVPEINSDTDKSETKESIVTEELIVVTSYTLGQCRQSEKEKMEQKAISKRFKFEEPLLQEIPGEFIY
Description: Eurofins KinaseProfiler radiometric kinase assay. To be noted: for remaining activity at 10 µM: read-out: DRAK1(h) % Residual activity.

A further test deals with T12, PDGFRβ(h) (Homo sapiens, UniProt P09619).
T12 construct: purchased Eurofins KinaseProfiler (Eurofins Cerep)
Description: Eurofins KinaseProfiler radiometric kinase assay. To be noted: read-out: PDGFRβ(h) % Residual activity.

The target of another test is T13, JAK2(h) (Homo sapiens, UniProt O60674).
T13 construct: purchased Eurofins KinaseProfiler (Eurofins Cerep)
Description: Eurofins KinaseProfiler radiometric kinase assay. To be noted: read-out: JAK2(h) % Residual activity.

A further test addresses FYNα (Homo sapiens, UniProt P06241). Put plainly: FYNα kinase assay, LANCE Ultra TR-FRET. To be noted: mean ± SD of at least three independent determinations; ATP near Km; read-out: Fyn IC50. (TR-FRET usually uses a lanthanide donor and a delayed reading to cut background.)
For the next test, the target named is T14, CHK1(h) (Homo sapiens, UniProt O14757).
T14 construct: purchased Eurofins KinaseProfiler (Eurofins Cerep)
T14 sequence (O14757 whole entry): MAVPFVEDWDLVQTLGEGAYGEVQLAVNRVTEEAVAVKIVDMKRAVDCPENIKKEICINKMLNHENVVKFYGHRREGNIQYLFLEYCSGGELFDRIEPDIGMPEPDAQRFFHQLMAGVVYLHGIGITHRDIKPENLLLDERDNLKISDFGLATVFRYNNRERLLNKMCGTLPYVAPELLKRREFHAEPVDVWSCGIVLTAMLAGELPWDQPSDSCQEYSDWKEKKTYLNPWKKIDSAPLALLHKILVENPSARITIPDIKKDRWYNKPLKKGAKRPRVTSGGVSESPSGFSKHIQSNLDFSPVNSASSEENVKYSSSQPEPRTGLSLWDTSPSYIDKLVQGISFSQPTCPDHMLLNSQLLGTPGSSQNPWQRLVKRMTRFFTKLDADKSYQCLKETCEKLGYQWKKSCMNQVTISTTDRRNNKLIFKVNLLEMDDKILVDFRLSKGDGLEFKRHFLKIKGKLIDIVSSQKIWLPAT
Description: Eurofins KinaseProfiler radiometric kinase assay. To be noted: read-out: CHK1(h) % Residual activity.

A further test deals with T15, IGF-1R(h) (Homo sapiens, UniProt P08069).
T15 construct: purchased Eurofins KinaseProfiler (Eurofins Cerep)
T15 sequence (P08069 31-1367): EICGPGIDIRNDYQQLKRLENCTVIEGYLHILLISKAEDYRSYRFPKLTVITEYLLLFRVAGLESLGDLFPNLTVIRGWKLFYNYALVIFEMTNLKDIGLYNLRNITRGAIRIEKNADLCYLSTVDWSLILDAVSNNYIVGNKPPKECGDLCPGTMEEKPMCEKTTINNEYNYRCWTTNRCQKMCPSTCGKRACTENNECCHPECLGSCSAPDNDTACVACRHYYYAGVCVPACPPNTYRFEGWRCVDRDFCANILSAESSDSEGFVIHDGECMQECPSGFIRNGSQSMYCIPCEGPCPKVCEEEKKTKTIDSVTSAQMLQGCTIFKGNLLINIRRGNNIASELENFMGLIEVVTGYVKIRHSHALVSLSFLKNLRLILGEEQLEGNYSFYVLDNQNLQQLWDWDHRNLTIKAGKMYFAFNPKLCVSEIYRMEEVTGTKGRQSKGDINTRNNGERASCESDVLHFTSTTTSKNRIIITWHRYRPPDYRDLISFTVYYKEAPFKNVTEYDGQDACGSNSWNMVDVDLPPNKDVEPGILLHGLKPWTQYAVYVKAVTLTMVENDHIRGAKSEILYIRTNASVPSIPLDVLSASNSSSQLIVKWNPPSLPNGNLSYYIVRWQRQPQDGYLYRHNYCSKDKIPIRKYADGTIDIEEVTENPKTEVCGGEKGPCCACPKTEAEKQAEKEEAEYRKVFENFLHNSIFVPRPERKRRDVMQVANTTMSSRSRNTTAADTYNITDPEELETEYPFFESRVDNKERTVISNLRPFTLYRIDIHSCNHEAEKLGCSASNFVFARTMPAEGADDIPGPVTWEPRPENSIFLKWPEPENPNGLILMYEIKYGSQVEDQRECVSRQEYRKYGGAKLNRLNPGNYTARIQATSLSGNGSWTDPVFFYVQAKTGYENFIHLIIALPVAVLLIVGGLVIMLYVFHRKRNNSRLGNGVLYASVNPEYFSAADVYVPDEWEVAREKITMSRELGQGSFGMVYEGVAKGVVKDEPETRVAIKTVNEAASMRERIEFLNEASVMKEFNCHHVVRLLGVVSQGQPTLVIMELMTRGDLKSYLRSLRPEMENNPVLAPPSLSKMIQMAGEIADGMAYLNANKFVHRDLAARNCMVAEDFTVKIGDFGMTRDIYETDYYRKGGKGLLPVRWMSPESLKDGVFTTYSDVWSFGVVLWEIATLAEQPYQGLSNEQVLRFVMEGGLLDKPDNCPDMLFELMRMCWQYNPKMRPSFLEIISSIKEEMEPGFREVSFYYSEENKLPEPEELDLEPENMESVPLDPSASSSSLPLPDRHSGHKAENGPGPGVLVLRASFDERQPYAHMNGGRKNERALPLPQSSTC
Description: Eurofins KinaseProfiler radiometric kinase assay. Particulars: read-out: IGF-1R(h) % Residual activity.

Another test deals with T16, MSK2(h) (Homo sapiens, UniProt O75676).
T16 construct: purchased Eurofins KinaseProfiler (Eurofins Cerep)
T16 sequence (O75676 whole entry): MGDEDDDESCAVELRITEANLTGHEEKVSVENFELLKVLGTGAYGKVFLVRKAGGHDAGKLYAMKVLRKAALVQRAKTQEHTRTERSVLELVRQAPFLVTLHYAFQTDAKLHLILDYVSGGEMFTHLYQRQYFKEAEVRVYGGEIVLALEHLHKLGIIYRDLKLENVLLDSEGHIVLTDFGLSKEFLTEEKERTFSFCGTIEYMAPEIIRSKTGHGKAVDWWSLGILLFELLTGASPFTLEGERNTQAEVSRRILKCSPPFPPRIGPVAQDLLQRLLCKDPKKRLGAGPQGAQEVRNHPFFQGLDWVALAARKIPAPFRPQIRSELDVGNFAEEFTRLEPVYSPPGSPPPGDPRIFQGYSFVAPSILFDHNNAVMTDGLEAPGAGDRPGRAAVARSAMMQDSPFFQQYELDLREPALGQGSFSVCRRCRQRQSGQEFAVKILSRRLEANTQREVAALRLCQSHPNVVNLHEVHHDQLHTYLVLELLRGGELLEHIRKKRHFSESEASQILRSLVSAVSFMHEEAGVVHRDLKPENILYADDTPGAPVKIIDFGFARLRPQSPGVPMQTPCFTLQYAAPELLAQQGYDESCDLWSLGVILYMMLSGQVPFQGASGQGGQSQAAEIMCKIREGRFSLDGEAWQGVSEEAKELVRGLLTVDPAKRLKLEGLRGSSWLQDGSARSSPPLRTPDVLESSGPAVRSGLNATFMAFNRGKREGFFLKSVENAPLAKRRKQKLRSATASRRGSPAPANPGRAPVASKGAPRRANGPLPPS
Put plainly: Eurofins KinaseProfiler radiometric kinase assay. Particulars: for remaining activity at 10 µM: read-out: MSK2(h) % Residual activity.

The next test addresses T17, PKCα(h) (Homo sapiens, UniProt P17252).
T17 construct: purchased Eurofins KinaseProfiler (Eurofins Cerep)
Description: Eurofins KinaseProfiler radiometric kinase assay. To be noted: read-out: PKCα(h) % Residual activity.

A further test deals with T18, Pim-1(h) (Homo sapiens, UniProt P11309).
T18 construct: purchased Eurofins KinaseProfiler (Eurofins Cerep)
T18 sequence (P11309 whole entry): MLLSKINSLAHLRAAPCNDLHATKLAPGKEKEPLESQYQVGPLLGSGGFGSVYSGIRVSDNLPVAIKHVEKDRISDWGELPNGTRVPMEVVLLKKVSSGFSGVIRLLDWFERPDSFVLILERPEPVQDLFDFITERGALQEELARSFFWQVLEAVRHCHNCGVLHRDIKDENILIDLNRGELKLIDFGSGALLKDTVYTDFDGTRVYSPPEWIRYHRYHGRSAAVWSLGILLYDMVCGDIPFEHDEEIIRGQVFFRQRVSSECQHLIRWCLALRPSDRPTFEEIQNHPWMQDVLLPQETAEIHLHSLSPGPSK
Put plainly: Eurofins KinaseProfiler radiometric kinase assay. Particulars: read-out: Pim-1(h) % Residual activity.

The next test concerns the target T19, c-RAF(h) (Homo sapiens, UniProt P04049).
T19 construct: purchased Eurofins KinaseProfiler (Eurofins Cerep)
Description: Eurofins KinaseProfiler radiometric kinase assay. To be noted: read-out: c-RAF(h) % Residual activity.

T1 sequence (Q15418 whole entry): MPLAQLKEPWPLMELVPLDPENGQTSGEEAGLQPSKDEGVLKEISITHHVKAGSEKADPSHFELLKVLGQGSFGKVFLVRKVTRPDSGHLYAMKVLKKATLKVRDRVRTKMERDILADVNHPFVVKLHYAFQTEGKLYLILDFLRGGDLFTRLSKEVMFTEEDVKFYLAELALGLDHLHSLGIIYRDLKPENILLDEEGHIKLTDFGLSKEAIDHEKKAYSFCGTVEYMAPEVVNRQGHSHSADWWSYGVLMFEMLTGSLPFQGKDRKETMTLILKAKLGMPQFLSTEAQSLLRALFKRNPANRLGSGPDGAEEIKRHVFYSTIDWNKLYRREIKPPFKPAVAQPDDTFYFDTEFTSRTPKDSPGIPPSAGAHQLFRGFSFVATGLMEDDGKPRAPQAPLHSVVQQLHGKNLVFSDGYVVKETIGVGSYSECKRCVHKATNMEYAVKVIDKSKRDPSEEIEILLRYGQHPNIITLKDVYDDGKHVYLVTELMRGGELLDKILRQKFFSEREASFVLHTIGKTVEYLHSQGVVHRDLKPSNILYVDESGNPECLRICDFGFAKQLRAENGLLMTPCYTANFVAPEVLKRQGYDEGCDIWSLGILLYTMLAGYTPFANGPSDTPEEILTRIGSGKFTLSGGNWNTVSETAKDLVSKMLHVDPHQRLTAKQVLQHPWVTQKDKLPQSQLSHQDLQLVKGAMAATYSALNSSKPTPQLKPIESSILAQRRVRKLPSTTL

The term inhibition denotes the percentage by which the read-out fell short of the control. The IC50 is the concentration that gives 50% inhibition. In the case of `Br.Cc1sc(NCc2ccccc2)nc1-c1c[nH]c2ncc(Br)cc12` [Compound 41, N-Benzyl-4-(5-bromo-1H-pyrrolo[2,3-b]pyridin-3-yl)-5-methylthiazol-2-amine Hydrobromide], the remaining activity at 10 µM on Rsk1(h) turned out to be 44%; at PKA(h) it was 111%; on EphB4(h), 109%; at EphA5(h), 93%; on CDK7/cyclinH/MAT1(h), 55%; at SAPK2a(h) it was 101%. The remaining activity at 10 µM on AMPKα1(h) stood at 54%; on IRAK4(h), 52%; in test [1], 97%; on p70S6K(h), 50%; on DRAK1(h), 9%; on PDGFRβ(h), 95%. Besides, the remaining activity at 10 µM on JAK2(h) was 26%; at CHK1(h), 111%; at IGF-1R(h), 83%; at MSK2(h), 59%; at PKCα(h) it was 66%; at Pim-1(h) it was 20%. At c-RAF(h), the remaining activity at 10 µM amounted to 52%. The same compound had an inhibition at 10 µM on DRAK1(h) of over 90%. Moreover, the concentration for half-maximal inhibition (IC50) on FYNα was found to be 50 ± 10 nM.
For the compound `Br.Cc1sc(NCc2ccnc(Cl)c2)nc1-c1c[nH]c2ncccc12` [Compound 43, N-((2-Chloropyridin-4-yl)methyl)-5-methyl-4-(1H-pyrrolo[2,3-b]pyridin-3-yl)thiazol-2-amine Hydrobromide], the inhibition at 10 µM on Rsk1(h), against PKA(h) and at MSK2(h) was over 90% in each case. The remaining activity at 10 µM on Rsk1(h) was 3%; at PKA(h) it was 8%; on EphB4(h), 108%; on EphA5(h), 103%; on CDK7/cyclinH/MAT1(h) it was 62%; on SAPK2a(h), 103%. The remaining activity at 10 µM at AMPKα1(h) turned out to be 60%; at IRAK4(h), 31%; in test [1] it was 96%; at p70S6K(h), 14%; at DRAK1(h) it was 14%; at PDGFRβ(h), 93%. Besides, the remaining activity at 10 µM at JAK2(h) was determined as 46%; on CHK1(h) it was 112%; on IGF-1R(h) it was 68%; at MSK2(h), 1%; at PKCα(h) it was 28%; at Pim-1(h), 55%. The remaining activity at 10 µM at c-RAF(h) came to 34%. On FYNα, the half-maximal inhibitory concentration (IC50) came out at 44 ± 3 nM.

The record behind these values is paper PMC12406253, “Exploration of the Neuromodulatory Properties of Fyn and GSK-3β Kinases Exploiting 7‑Azaindole-Based Inhibitors” (Journal of Medicinal Chemistry, 2025).
